{"source": "patent US6300313A", "about": "“Means for treating prostate hypertrophy and prostate cancer” (ASTA Medica Aktiengesellschaft, priority 1999, dated 2001)", "key": {"[1]": {"system": "BPH", "test": "Clinical therapy of BPH with Cetrorelix (Example 1)", "assay_type": "in vivo, patients", "details": "Example 1 therapy regimen", "method": "Cetrorelix is administered in a dose of 0.5 mg to 2 mg daily for 4 to 8 weeks for the therapy of BPH. A dose of 5 mg to 30 mg, dispensed once per week or every 10 days also over a time period of 4 to 8 weeks as well as one every two weeks or one injection per month of 20 mg to 60 mg can also decisively improve the clinical symptoms and signs. […] The prostate volume decreases by 20 to 40% during the treatment time of 4 to 8 weeks. […] In addition, at least 30% of the patients achieve an improvement of the urine flow of 6 ml/sec with this therapy. This is almost equivalent to an improvement like that associated with the golden standard operation, and in considerably shorter time. […] These clinical benefits continue for at least 3 to 6 months after therapy. This allows a long-term therapy of BPH with only an intermittent treatment of 2 to max. 4 injection cycles over 4 to 8 weeks."}, "[2]": {"system": "BPH patients", "details": "500 μg every 12 hours for 4 weeks, cited from earlier work"}, "[3]": {"system": "Prostate carcinoma patients", "details": "cited from earlier work"}}, "note": "Non-standard residues stand in square brackets, D forms with d. Residues, ends and D or L forms follow the SMILES beside them. dPhe(4-Cl) = N[C@H](Cc1ccc(Cl)cc1)C(=O)O; d2Nal = N[C@H](Cc1ccc2ccccc2c1)C(=O)O; dCit = NC(=O)NCCC[C@@H](N)C(=O)O; d3Pal = N[C@H](Cc1cccnc1)C(=O)O", "data": [{"smiles": "CC(=O)N[C@H](Cc1ccc2ccccc2c1)C(=O)N[C@H](Cc1ccc(Cl)cc1)C(=O)N[C@H](Cc1cccnc1)C(=O)N[C@@H](CO)C(=O)N[C@@H](Cc1ccc(O)cc1)C(=O)N[C@H](CCCNC(N)=O)C(=O)N[C@@H](CC(C)C)C(=O)N[C@@H](CCCNC(=N)N)C(=O)N1CCC[C@H]1C(=O)N[C@H](C)C(N)=O", "note": "[Cetrorelix] (Ac-[d2Nal][dPhe(4-Cl)][d3Pal]SY[dCit]LRP[dA]-NH2)", "values": [{"measurement": "quality of life", "setting": "[1]", "result": "significant improvements"}, {"measurement": "sexual performance", "setting": "[1]", "result": "No limitations in sexual performance are observed"}, {"measurement": "testosterone level", "setting": "[1]", "result": "Submaximal decreases of testosterone occur, but these are above those levels associated with castration"}, {"measurement": "increase of the peak flow of the urine", "setting": "[1]; 4 to 8 weeks", "result": "approximately 3 ml/sec"}, {"measurement": "patients achieving an improvement of the urine flow of 6 ml/sec", "setting": "[1]; 4 to 8 weeks", "result": "at least 30%"}, {"measurement": "symptoms of dysuria and prostate volume", "setting": "[2]", "result": "distinct decrease"}, {"measurement": "testosterone levels, initially", "setting": "[2]; initial phase", "result": "lowering in testosterone levels to a castration level"}, {"measurement": "testosterone levels in the course of treatment", "setting": "[2]; no castration values during the last three weeks", "result": "fluctuated at subnormal levels"}, {"measurement": "testosterone levels, initially", "setting": "[3]; 500 μg every 12 hours for 6 weeks, initial phase", "result": "lowering in testosterone levels to a castration level"}, {"measurement": "overall condition of the patient", "setting": "[3]; end of the 6 weeks of therapy", "result": "considerable improvement"}, {"measurement": "testosterone values at the end of therapy", "setting": "[3]; end of the 6 weeks of therapy", "result": "castration levels"}]}]}
